Tests used:
Test in all cases: relative viability (nuclei count vs DMSO), 5 days (fraction); higher = more cells survive
[1] = compound: Cc1nc(Nc2ncc(C(=O)Nc3c(C)cccc3Cl)s2)cc(N2CCN(CCO)CC2)n1 [Dasatinib] + CS(=O)(=O)CCNCc1ccc(-c2ccc3ncnc(Nc4ccc(OCc5cccc(F)c5)c(Cl)c4)c3c2)o1 [Lapatinib] (partner 2 µM)
How it was run: (§1)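 Lung cancer cell lines in 1536-well plates were dosed by pin tool the day after seeding, either with one drug alone or with a fixed anchor-drug dose plus five library-drug doses (not always all listed) in √10 steps. After 5 days, cells were fixed and their nuclei stained in one step (final 0.05% Triton X-100, 1% formaldehyde, 1 ug/ml Hoechst), then counted on 4× images. Relative viability is the nuclei count in treated wells divided by that in vehicle wells. Values are medians of duplicate plates.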

[2] = compound: Cc1nc(Nc2ncc(C(=O)Nc3c(C)cccc3Cl)s2)cc(N2CCN(CCO)CC2)n1 [Dasatinib] + COc1cc2c(Oc3ccc(NC(=O)C4(C(=O)Nc5ccc(F)cc5)CC4)cc3F)ccnc2cc1OCCCN1CCOCC1 [Foretinib] (partner 0.25 µM)
How it was run: as §1

[3] = compound: Cc1ccc(C(=O)Nc2cccc(C(F)(F)F)c2)cc1Nc1cncc(C(N)=O)c1 [ALW-II-49-7] + Cc1cc(Nc2cc(N3CCN(C)CC3)nc(Sc3ccc(NC(=O)C4CC4)cc3)n2)n[nH]1 [Tozasertib] (partner 0.1 µM)
How it was run: as §1

[4] = compound: Cc1nc(Nc2ncc(C(=O)Nc3c(C)cccc3Cl)s2)cc(N2CCN(CCO)CC2)n1 [Dasatinib] + O=C(CCCCCCC(=O)Nc1ccccc1)NO [Vorinostat] (partner 1 µM)
How it was run: as §1

Cell Line | relative viability ([1]; first compound 0.005 µM) | relative viability ([1]; first compound 0.01581 µM) | relative viability ([1]; first compound 0.05 µM) | relative viability ([1]; first compound 0.1581 µM) | relative viability ([1]; first compound 0.5 µM) | relative viability ([2]; first compound 0.005 µM) | relative viability ([2]; first compound 0.01581 µM) | relative viability ([2]; first compound 0.05 µM) | relative viability ([2]; first compound 0.1581 µM) | relative viability ([2]; first compound 0.5 µM) | relative viability ([3]; first compound 0.08 µM) | relative viability ([3]; first compound 0.253 µM) | relative viability ([3]; first compound 0.8 µM) | relative viability ([3]; first compound 2.53 µM) | relative viability ([3]; first compound 8 µM) | relative viability ([4]; first compound 0.005 µM) | relative viability ([4]; first compound 0.01581 µM) | relative viability ([4]; first compound 0.05 µM) | relative viability ([4]; first compound 0.1581 µM) | relative viability ([4]; first compound 0.5 µM)
NCI-H2405 | 0.684 | 0.81 | 0.465 | 0.222 | 0.17 | 0.983 | 0.714 | 0.564 | 0.304 | 0.233 | 0.73 | 0.692 | 0.687 | 0.642 | 0.547 | 0.838 | 0.597 | 0.427 | 0.188 | 0.227
NCI-H3122 | 0.999 | 1.02 | 1.02 | 1.01 | 0.84 | 0.932 | 0.871 | 0.955 | 0.942 | 0.567 | 0.437 | 0.202 | 0.371 | – | 0.373 | 1.04 | 0.949 | 0.986 | 1.02 | 0.614
PC-3 [JPC-3] | 0.422 | 0.393 | 0.444 | 0.331 | 0.335 | 1.05 | 1.02 | 1.05 | 0.948 | 0.434 | 0.653 | 0.946 | 0.867 | 0.776 | 0.843 | 0.86 | 0.953 | 0.787 | 0.522 | 0.475
PC-14 | 0.29 | 0.282 | 0.242 | 0.208 | 0.0848 | 0.981 | 0.948 | 0.912 | 0.712 | 0.335 | 0.584 | 0.657 | 0.503 | 0.288 | 0.492 | 0.653 | 0.699 | 0.562 | 0.318 | 0.0563
RERF-LC-KJ | 0.819 | 0.758 | 0.84 | 0.813 | 0.809 | 0.888 | 0.831 | 0.989 | 0.824 | 0.779 | 0.442 | 0.524 | 0.461 | 0.506 | 0.321 | 0.667 | 0.602 | 0.585 | 0.491 | 0.416
SK-LU-1 | 0.467 | 0.53 | 0.424 | 0.305 | 0.298 | 0.543 | 0.343 | 0.295 | 0.171 | 0.179 | 0.323 | 0.391 | 0.295 | 0.289 | 0.242 | 0.686 | 0.647 | 0.473 | 0.278 | 0.246
SK-MES-1 | 0.467 | 0.482 | 0.399 | 0.315 | 0.258 | 1.01 | 0.73 | 0.687 | 0.482 | 0.231 | 0.878 | 0.986 | 0.843 | 0.844 | 0.568 | 1.19 | 0.961 | 0.977 | 0.503 | 0.206
SW 1573 | 1.15 | 0.967 | 1.01 | 0.738 | 0.826 | 1.05 | 0.746 | 0.783 | 0.695 | 0.525 | 0.187 | 0.248 | 0.186 | 0.196 | 0.151 | 0.968 | – | 0.649 | 0.538 | 0.491
